Assay results as given in US9499553B2 (CHUGAI SEIYAKU KABUSHIKI KAISHA, priority 2013, dated 2016).
Where a name gives a salt, the structure may show the parent alone. Read-outs that look alike come from different tables or passages of the source.

Assays:
human NaPi-IIb = biological target: T1, human NaPi-IIb (Homo sapiens, UniProt O95436); experiment: Inhibitory effect on 33PO4 uptake into human NaPi-IIb-expressing CHO cells; type: cell-based
T1 construct: expressed in transfected cells
T1 sequence (O95436 1-690): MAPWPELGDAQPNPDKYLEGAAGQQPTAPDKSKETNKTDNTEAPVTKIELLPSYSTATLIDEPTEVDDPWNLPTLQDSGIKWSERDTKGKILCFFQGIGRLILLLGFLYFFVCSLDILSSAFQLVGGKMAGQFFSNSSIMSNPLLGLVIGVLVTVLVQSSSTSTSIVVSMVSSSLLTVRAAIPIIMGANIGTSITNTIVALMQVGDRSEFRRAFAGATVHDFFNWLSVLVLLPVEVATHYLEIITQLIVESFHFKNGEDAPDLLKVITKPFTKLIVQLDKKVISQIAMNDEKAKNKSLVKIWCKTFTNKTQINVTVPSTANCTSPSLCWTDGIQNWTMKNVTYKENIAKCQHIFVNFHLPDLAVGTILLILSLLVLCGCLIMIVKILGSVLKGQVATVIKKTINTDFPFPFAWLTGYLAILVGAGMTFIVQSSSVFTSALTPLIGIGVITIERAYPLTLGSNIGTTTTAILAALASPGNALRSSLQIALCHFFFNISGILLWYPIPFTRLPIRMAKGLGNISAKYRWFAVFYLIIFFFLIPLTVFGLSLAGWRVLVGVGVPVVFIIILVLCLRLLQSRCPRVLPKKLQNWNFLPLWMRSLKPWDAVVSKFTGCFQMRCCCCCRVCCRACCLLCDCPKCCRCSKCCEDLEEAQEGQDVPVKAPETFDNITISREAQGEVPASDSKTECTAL
Outline: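 Stable human NaPi-IIb CHO line (G418-selected), plated and cultured overnight; ³³PO4 added in buffer A and uptake run at room temperature. Cells washed with ice-cold buffer A, then uptake counted by liquid scintillation.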

[1] = system: rat small-intestinal brush border membrane vesicles; experiment: Inhibitory effect on 33PO4 uptake into rat small-intestinal brush border membrane vesicles (rapid filtration method); type: biochemical; conditions: 1 μM test compound; 33PO4 uptake into rat small-intestinal BBMVs, reacted for 60 seconds
Method: Test Example 1: Inhibitory Effect on ^33PO4 Uptake into Rat Small-Intestinal Brush Border Membrane Vesicles Brush border membrane vesicles (BBMVs) were prepared using the upper region of the small intestine of each Wistar female rat (4-5 weeks old). The preparation of BBMVs was performed according to the method of Murer et al. (Murer […]. Sodium/proton antiport in brush-border-membrane vesicles isolated from rat small intestine and kidney. 1976. J Am Soc Nephrol. 1998 January; 9 (1): 143-50). The ^33PO4 transport activity of the small-intestinal BBMVs was determined by the rapid filtration method. […] Then, ice-cold buffer C (110 mM NaCl, 1 mM KH2PO4, and 10 mM HEPES (pH 7.5)) was added to each reaction mixture, which was immediately suction-filtered through a Millipore filter. The filter was washed with buffer C, and each sample was then dissolved in a liquid scintillator. The amount of ^33PO4 uptake into BBMVs was measured using a liquid scintillation counter.

Structure (SMILES) | IC50 (human NaPi-IIb; read-out: IC50) | Rate of uptake inhibition (%) (1 μM) [1] | IC50 (human NaPi-IIb; read-out: IC50 against 33PO4 uptake into human NaPi-IIb-expressing cells)
C[C@]12CCCN1N(Cc1cccc(F)c1F)C(=O)C(C(=O)Nc1ccc(C(F)(F)F)cc1-c1cccc(C#N)c1F)=C2O [Example 46] | 14.1 µM | 71% | 
CC1(C)CC[C@]2(C)C(O)=C(C(=O)Nc3ccc(C(F)(F)F)cc3-c3ccc(C(F)(F)F)nc3)C(=O)N(Cc3cccc(F)c3F)N12 [Example 61] | 5.6 µM | 71% | 
C[C@]12CCCN1N(Cc1ccc(OCCN3CCOCC3)c(F)c1F)C(=O)C(C(=O)Nc1ccc(C(F)(F)F)nc1-c1ccc(OC(F)(F)F)cc1)=C2O [Example 60] | 8.8 µM | 78% | 
COc1nc(C#N)ncc1-c1cc(C(F)(F)F)ccc1NC(=O)C1=C(O)[C@@]2(C)CCCN2N(Cc2cccc(F)c2F)C1=O [Example 56] | 7.2 µM | 88% | 
Cc1c(-c2cc(C(F)(F)F)ccc2NC(=O)C2=C(O)[C@@]3(C)CCCN3N(Cc3cccc(F)c3F)C2=O)ccnc1Cl [Example 47] | 7.1 µM | 91% | 
CSc1ncc(-c2cc(C(F)(F)F)ccc2NC(=O)C2=C(O)[C@@]3(C)CCC(C)(C)N3N(Cc3cccc(F)c3F)C2=O)cn1 [Example 62] | 6.4 µM | 73% | 
C[C@]12CCCN1N(Cc1cccc(F)c1Br)C(=O)C(C(=O)Nc1ccc(Br)c(C#N)c1)=C2O [Example 40] | 6.5 µM | 87% | 
C[C@]12CCCN1N(Cc1cccc(F)c1F)C(=O)C(C(=O)Nc1ccc(C(F)(F)F)cc1-c1cnc(C#N)nc1)=C2O [Example 95] | 5.4 µM | 80% | 
C[C@]12CCCN1N(Cc1cccc(F)c1F)C(=O)C(C(=O)Nc1ccc(Br)c(C(F)(F)F)c1)=C2O [Example 30] | 2.3 µM | 71% | 
CSc1ccc(-c2cc(C(F)(F)F)ccc2NC(=O)C2=C(O)[C@@]3(C)CCCN3N(Cc3cccc(F)c3F)C2=O)cn1 [Example 97] | 2.7 µM | 89% | 
C[C@]12CCCN1N(Cc1cccc(F)c1)C(=O)C(C(=O)Nc1cc(F)c(Br)c(F)c1)=C2O [Example 36] | 6.1 µM | 80% | 
CN1N(Cc2ccc(OCC[N+]34CCN(CC3)CC4)c(F)c2F)C(=O)C(C(=O)Nc2ccc(C(F)(F)F)cc2-c2cc(C(F)(F)F)ncn2)=C(O)C12CCCC2 [Example 415, 1-(2-(2,3-Difluoro-4-((10-hydroxy-6-methyl-8-oxo-9-((4-(trifluoromethyl)-2-(6-(trifluoromethyl)pyrimidin-4-yl)phenyl)carbamoyl)-6,7-diazaspiro[4.5]dec-9-en-7-yl)methyl)phenoxy)ethyl)-1,4-diazabicyclo[2.2.2]octan-1-ium formate] |  | 21% | 18.5 µM
C[C@]12CCCN1N(Cc1cccc(F)c1F)C(=O)C(C(=O)Nc1ccc(C(F)(F)F)cc1-c1cnc(C#N)cn1)=C2O [Example 57] | 10.3 µM | 71% | 
Cc1cc(S(=O)(=O)N(C)C)ccc1-c1cc(C(F)(F)F)ccc1NC(=O)C1=C(O)[C@@]2(C)CCCN2N(Cc2cccc(F)c2F)C1=O [Example 50] | 8.3 µM | 79% | 
C[C@]12CCCN1N(Cc1cccc(F)c1F)C(=O)C(C(=O)Nc1ccc(C(F)(F)F)cc1-c1cc(C#N)ccn1)=C2O [Example 45] | 13 µM | 73% | 
C[C@]12CCCN1N(Cc1cccc(F)c1Br)C(=O)C(C(=O)Nc1ccc(Cl)cc1F)=C2O [Example 38] | 6.7 µM | 90% | 

Structure (SMILES) | IC50 (human NaPi-IIb; read-out: IC50) | Rate of uptake inhibition (%) (1 μM) [1] | IC50 (human NaPi-IIb; read-out: IC50 against 33PO4 uptake into human NaPi-IIb-expressing cells)
C[C@]12CCCN1N(Cc1ccc(OCCN3CCOCC3)c(F)c1F)C(=O)C(C(=O)Nc1ccc(C(F)(F)F)cc1-c1ncnc(C#N)c1Cl)=C2O [Example 53] | 9.5 µM | 72% | 
COc1c(Cl)ncnc1-c1cc(C(F)(F)F)ccc1NC(=O)C1=C(O)[C@@]2(C)CCCN2N(Cc2cccc(F)c2F)C1=O [Example 49] | 12.9 µM | 85% | 
C[C@]12CCCN1N(Cc1cccc(C#N)c1)C(=O)C(C(=O)Nc1ccc(C(F)(F)F)cc1-c1cnc(Cl)c(C#N)c1)=C2O [Example 51] | 16 µM | 72% | 
C[C@]12CCCN1N(Cc1cccc(F)c1)C(=O)C(C(=O)Nc1ccc(C(F)(F)F)cc1-c1cc(C(F)(F)F)ncn1)=C2O [Example 34] | 7 µM | 99% | 
CSc1ncc(-c2cc(C(F)(F)F)ccc2NC(=O)C2=C(O)[C@@]3(C)CCCN3N(Cc3cccc(F)c3F)C2=O)cn1 [Example 96] | 2.8 µM | 83% | 
C[C@]12CCCN1N(Cc1cccc(F)c1Br)C(=O)C(C(=O)Nc1ccc(Br)c(Cl)c1)=C2O [Example 41] | 6.6 µM | 84% | 
C[C@]12CCCN1N(Cc1cccc(F)c1F)C(=O)C(C(=O)Nc1ccc(C(F)(F)F)cc1-c1cccc(F)c1C#N)=C2O [Example 48] | 16.3 µM | 87% | 
C[C@]12CCCN1N(Cc1cccc(F)c1)C(=O)C(C(=O)Nc1ccc(Br)c(F)c1)=C2O [Example 35] | 12.6 µM | 79% | 
CSc1ncc(-c2nc(C(F)(F)F)ccc2NC(=O)C2=C(O)[C@@]3(C)CCCN3N(Cc3cccc(F)c3F)C2=O)cn1 [Example 54] | 2.3 µM | 72% | 
C[C@]12CCCN1N(Cc1ccc(OCCN3CCOCC3)c(F)c1F)C(=O)C(C(=O)Nc1ccc(C(F)(F)F)nc1-c1ccccc1OC(F)(F)F)=C2O [Example 59] | 7.4 µM | 84% | 
C[C@]12CCCN1N(Cc1cccc(F)c1F)C(=O)C(C(=O)Nc1ccc(Br)c(F)c1F)=C2O [Example 32] | 2.8 µM | 73% | 
C[C@]12CCCN1N(Cc1cccc(F)c1Br)C(=O)C(C(=O)Nc1cccc(Cl)c1F)=C2O [Example 43] | 8.3 µM | 79% | 
Cc1nc(NC(=O)C2=C(O)[C@@]3(C)CCCN3N(Cc3cccc(F)c3Br)C2=O)ccc1Br [Example 39] | 8.5 µM | 90% | 
COc1nc(C#N)ncc1-c1cc(C(F)(F)F)ccc1NC(=O)C1=C(O)[C@@]2(C)CCCN2N(Cc2ccc(OCCN3CCOCC3)c(F)c2F)C1=O [Example 55] | 15.3 µM | 85% | 
C[C@]12CCCN1N(Cc1cccc(F)c1Br)C(=O)C(C(=O)Nc1ccc(Br)c(F)c1)=C2O [Example 37] | 3.7 µM | 89% | 
C[C@]12CCCN1N(Cc1cccc(F)c1F)C(=O)C(C(=O)Nc1cc(Br)c(Br)cc1F)=C2O [Example 33] | 6 µM | 77% | 
